The assay has as its system HIV-1 (H9IIIB strain). Kind of assay: Cell-Based HIV Infection Assay Using a Reporter (MT4-GFP cells). To be noted: Human immunodeficiency virus 1, inflection point (IP) of viral growth inhibition; MT4-GFP cells infected with HIV-1 H9IIIB; 50% normal human serum; mean of at least two independent experiments; read-out: Cell Based IP (50% NHS). The essentials: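 Inflection point from a 4-parameter curve of % viral growth inhibition, normalised to DMSO and triple-drug controls, using the 48 h/24 h ratio of GFP-positive cells (R0). MT4-GFP cells pre-infected 24 h with HIV-1 H9IIIB at low MOI; compounds tested in 50% normal human serum, 0.4% DMSO; mean of ≥2 experiments.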

The structures appear in SMILES notation.

For `N[C@H](C(=O)Nc1cccc(F)c1CCC1CNC2CCCS(=O)(=O)N1C2)[C@H](CCC1CCCCO1)c1ccc(Cl)cc1` (stereo partly drawn) [Example 151, (βR)-4-chloro-N-{2-[2-(2,2-dioxido-2-thia-1,7-diazabicyclo[4.3.1]dec-9-yl)ethyl]-3-fluorophenyl}-β-[2-(tetrahydro-2H-pyran-2-yl)ethyl]-L-phenylalaninamide], the EC50 is 23 nM. Consider `COC(=O)N[C@H](C(=O)Nc1cccc(F)c1CCC1CNC2CCCS(=O)(=O)N1C2)[C@H](CCC1CCCCO1)c1ccc(Cl)cc1` (stereo partly drawn) [Example 153, methyl [(1S,2R)-2-(4-chlorophenyl)-1-({2-[2-(2,2-dioxido-2-thia-1,7-diazabicyclo[4.3.1]dec-9-yl)ethyl]-3-fluorophenyl}carbamoyl)-4-(tetrahydro-2H-pyran-2-yl)butyl]carbamate], for which the EC50 stood at 9.7 nM. Turning to `COc1ccc([C@H](c2ccc(Cl)cc2)[C@H](N)C(=O)N[C@H]2CCCC[C@@H]2CC[C@H]2CN[C@@H]3CCCS(=O)(=O)N2C3)cn1` [Example 155, (βS)-4-chloro-N-[(1S,2R)-2-{2-[(6R,9S)-2,2-dioxido-2-thia-1,7-diazabicyclo[4.3.1]dec-9-yl]ethyl}cyclohexyl]-β-(6-methoxypyridin-3-yl)-L-phenylalaninamide], the EC50 turned out to be 600 nM. For `N[C@H](C(=O)N[C@H]1CCCC[C@@H]1CC[C@H]1CN[C@@H]2CCCS(=O)(=O)N1C2)[C@@H](c1ccc(F)cc1)C1CCOCC1` [Example 156, (βR)-N-[(1S,2R)-2-{2-[(6R,9S)-2,2-dioxido-2-thia-1,7-diazabicyclo[4.3.1]dec-9-yl]ethyl}cyclohexyl]-4-fluoro-β-(tetrahydro-2H-pyran-4-yl)-L-phenylalaninamide] the value was 200 nM.

In the case of `N[C@H](C(=O)N[C@H]1CCC[C@@H]1CC[C@H]1CN[C@@H]2CCCS(=O)(=O)N1C2)[C@@H](c1ccc(Cl)cc1)C1CCS(=O)(=O)CC1` [Example 157, (βR)-4-chloro-β-(1,1-dioxidotetrahydro-2H-thiopyran-4-yl)-N-[(1S,2R)-2-{2-[(6R,9S)-2,2-dioxido-2-thia-1,7-diazabicyclo[4.3.1]dec-9-yl]ethyl}cyclopentyl]-L-phenylalaninamide], the EC50 came to 3400 nM. On to `N[C@H](C(=O)Nc1cccc(F)c1CC[C@H]1CNC2CCCS(=O)(=O)N1C2)[C@@H](c1ccc(Cl)cc1)C1CCS(=O)(=O)CC1` (stereo partly drawn) [Example 158, (βR)-4-chloro-β-(1,1-dioxidotetrahydro-2H-thiopyran-4-yl)-N-(2-{2-[(9S)-2,2-dioxido-2-thia-1,7-diazabicyclo[4.3.1]dec-9-yl]ethyl}-3-fluorophenyl)-L-phenylalaninamide], for which the EC50 is 110 nM. Regarding `COC(=O)N[C@H](C(=O)Nc1cccc(F)c1CC[C@H]1CNC2CCCS(=O)(=O)N1C2)[C@@H](c1ccc(Cl)cc1)C1CCS(=O)(=O)CC1` (stereo partly drawn) [Example 159, methyl {(1S,2R)-2-(4-chlorophenyl)-2-(1,1-dioxidotetrahydro-2H-thiopyran-4-yl)-1-[(2-{2-[(9S)-2,2-dioxido-2-thia-1,7-diazabicyclo[4.3.1]dec-9-yl]ethyl}-3-fluorophenyl)carbamoyl]ethyl}carbamate], the EC50 worked out at 720 nM. To `N[C@H](C(=O)N[C@H]1CCCC[C@@H]1CC[C@H]1CN[C@@H]2CCCS(=O)(=O)N1C2)[C@@H](c1ccc(Cl)cc1)c1cc(F)cc(F)c1` [Example 160, (βS)-β-(4-chlorophenyl)-N-[(1S,2R)-2-{2-[(6R,9S)-2,2-dioxido-2-thia-1,7-diazabicyclo[4.3.1]dec-9-yl]ethyl}cyclohexyl]-3,5-difluoro-L-phenylalaninamide] belongs 22 nM; to `CC(C)[C@H](c1ccc(Cl)cc1)[C@H](N)C(=O)N[C@H]1CCCC[C@@H]1CC[C@H]1CN[C@@H]2CCCS(=O)(=O)N1C2` [Example 161, (βR)-4-chloro-N-[(1S,2R)-2-{2-[(6R,9S)-2,2-dioxido-2-thia-1,7-diazabicyclo[4.3.1]dec-9-yl]ethyl}cyclohexyl]-β-(1-methylethyl)-L-phenylalaninamide], 78 nM; to `C[C@@H]1CC([C@H](c2ccc(Cl)cc2)[C@H](N)C(=O)N[C@H]2CCCC[C@@H]2CC[C@H]2CN[C@@H]3CCCS(=O)(=O)N2C3)C[C@H](C)O1` (stereo partly drawn) [Example 162, (βR)-4-chloro-β-[(2R,6S)-2,6-dimethyltetrahydro-2H-pyran-4-yl]-N-[(1S,2R)-2-{2-[(6R,9S)-2,2-dioxido-2-thia-1,7-diazabicyclo[4.3.1]dec-9-yl]ethyl}cyclohexyl]-L-phenylalaninamide], 37 nM. On to `N[C@H](C(=O)Nc1cccc(F)c1CCC1CNC2CCCS(=O)(=O)N1C2)[C@@H](c1ccc(Cl)cc1)C1CCOC(CC(F)(F)F)C1` (stereo partly drawn) [Example 163, (βR)-4-chloro-N-{2-[2-(2,2-dioxido-2-thia-1,7-diazabicyclo[4.3.1]dec-9-yl)ethyl]-3-fluorophenyl}-β-[2-(2,2,2-trifluoroethyl)telrahydro-2H-pyran-4-yl]-L-phenylalaninamide], for which the EC50 is 19 nM.

As for `C[C@@H]1CC([C@H](c2ccc(Cl)c(F)c2)[C@H](N)C(=O)Nc2cccc(F)c2CC[C@H]2CN[C@@H]3CCCS(=O)(=O)N2C3)C[C@H](C)O1` (stereo partly drawn) [Example 165, (βR)-4-chloro-β-[(2R,6S)-2,6-dimethyltetrahydro-2H-pyran-4-yl]-N-(2-{2-[(6R,9S)-2,2-dioxido-2-thia-1,7-diazabicyclo[4.3.1]dec-9-yl]ethyl}-3-fluorophenyl)-3-fluoro-L-phenylalaninamide], the EC50 stood at 7.5 nM. For `C[C@@H]1CC([C@H](c2ccc(F)cc2)[C@H](N)C(=O)Nc2ccc(F)c(F)c2CC[C@H]2CN[C@@H]3CCCS(=O)(=O)N2C3)C[C@H](C)O1` (stereo partly drawn) [Example 166, (βR)-β-[(2R,6S)-2,6-dimethyltetrahydro-2H-pyran-4-yl]-N-(2-{2-[(6R,9S)-2,2-dioxido-2-thia-1,7-diazabicyclo[4.3.1]dec-9-yl]ethyl}-3,4-difluorophenyl)-4-fluoro-L-phenylalaninamide] the value was 25 nM; for `COC(=O)N[C@H](C(=O)Nc1cccc(F)c1CC[C@H]1CN[C@@H]2CCCS(=O)(=O)N1C2)[C@@]1(c2ccc(Cl)cc2)C[C@@H](C)O[C@@H](C)C1` [Example 167, methyl {(1S)-1-[(2R,4r,6S)-4-(4-chlorophenyl)-2,6-dimethyltetrahydro-2H-pyran-4-yl]-2-[(2-{2-[(6R,9S)-2,2-dioxido-2-thia-1,7-diazabicyclo[4.3.1]dec-9-yl]ethyl}-3-fluorophenyl)amino]-2-oxoethyl}carbamate], 27 nM. For `C[C@@H]1C[C@](c2ccc(Cl)cc2)([C@H](N)C(=O)Nc2cccc(F)c2CC[C@H]2CN[C@@H]3CCCS(=O)(=O)N2C3)C[C@H](C)O1` [Example 168, (2S)-2-amino-2-[(2R,4r,6S)-4-(4-chlorophenyl)-2,6-dimethyltetrahydro-2H-pyran-4-yl]-N-(2-{2-[(6R,9S)-2,2-dioxido-2-thia-1,7-diazabicyclo[4.3.1]dec-9-yl]ethyl}-3-fluorophenyl)ethanamide] the value was 170 nM; for `COC(=O)N[C@H](C(=O)N[C@H]1CCCC[C@@H]1CC[C@H]1CN[C@@H]2CCCS(=O)(=O)N1C2)[C@@]1(c2ccc(Cl)cc2)C[C@@H](C)O[C@@H](C)C1` [Example 169, methyl [(1S)-1-[(2R,4r,6S)-4-(4-chlorophenyl)-2.6-dimethyltetrahydro-2H-pyran-4-yl]-2-{[(1S,2R)-2-{2-[(6R,9S)-2,2-dioxido-2-thia-1,7-diazabicyclo[4.3.1]dec-9-yl]ethyl}cyclohexyl]amino}-2-oxoethyl]carbamate], 89 nM.

Consider `C[C@@H]1C[C@](c2ccc(Cl)cc2)([C@H](N)C(=O)N[C@H]2CCCC[C@@H]2CC[C@H]2CN[C@@H]3CCCS(=O)(=O)N2C3)C[C@H](C)O1` [Example 170, (2S)-2-amino-2-[(2R,4r,6S)-4-(4-chlorophenyl)-2,6-dimethyltetrahydro-2H-pyran-4-yl]-N-[(1S,2R)-2-{2-[(6R,9S)-2,2-dioxido-2-thia-1,7-diazabicyclo[4.3.1]dec-9-yl]ethyl}cyclohexyl]ethanamide], for which the EC50 was 230 nM. To `CO[C@H]1CC[C@](c2ccc(Cl)cc2)([C@H](N)C(=O)Nc2cccc(F)c2CC[C@H]2CN[C@@H]3CCCS(=O)(=O)N2C3)CC1` [Example 171, (2S)-2-amino-2-[trans-1-(4-chlorophenyl)-4-methoxycyclohexyl]-N-(2-{2-[(6R,9S)-2,2-dioxido-2-thia-1,7-diazabicyclo[4.3.1]dec-9-yl]ethyl}-3-fluorophenyl)ethanamide] belongs 34 nM. As for `COC(=O)N[C@H](C(=O)Nc1cccc(F)c1CCC1CNC2CCCS(=O)(=O)N1C2)[C@@H](c1ccc(Cl)cc1)C1CCOC(CC(F)(F)F)C1` (stereo partly drawn) [Example 172, methyl {(1S,2R)-2-(4-chlorophenyl)-1-({2-[2-(2,2-dioxido-2-thia-1,7-diazabicyclo[4.3.1]dec-9-yl)ethyl]-3-fluorophenyl}carbamoyl)-2-[2-(2,2,2-trifluoroethyl)tetrahydro-2H-pyran-4-yl]ethyl}carbamate], the EC50 came out at 38 nM. With `N[C@H](C(=O)Nc1cncc(F)c1CC[C@H]1CN[C@@H]2CCCS(=O)(=O)N1C2)[C@@H](c1ccc(Cl)cc1)C1CCOCC1` [Example 173, (βR)-4-chloro-N-(4-{2-[(6R,9S)-2,2-dioxido-2-thia-1,7-diazabicyclo[4.3.1]dec-9-yl]ethyl}-5-fluoropyridin-3-yl)-β-(tetrahydro-2H-pyran-4-yl)-L-phenylalaninamide], the EC50 amounted to 23 nM. To `COC(=O)N[C@H](C(=O)Nc1cncc(F)c1CC[C@H]1CN[C@@H]2CCCS(=O)(=O)N1C2)[C@@H](c1ccc(Cl)cc1)C1CCOCC1` [Example 174, methyl [(1S,2R)-2-(4-chlorophenyl)-1-[(4-{2-[(6R,9S)-2,2-dioxido-2-thia-1,7-diazabicyclo[4.3.1]dec-9-yl]ethyl}-5-fluoropyridin-3-yl)carbamoyl]-2-(tetrahydro-2H-pyran-4-yl)ethyl]carbamate] belongs 89 nM.

The values are drawn from patent US10138255B2, “Piperazine derivatives as HIV protease inhibitors” (Merck Sharp & Dohme Corp., priority 2014, dated 2018).
